The results in this text go back to BindingDB's records for doi:10.1016/j.bmcl.2008.01.127 (Johnson & Johnson Pharmaceutical Research and Development, 2008).

As a reminder, the IC50 is the concentration that gives 50% inhibition.

A short description of this assay: Antagonist activity at rabbit CXCR2 by neutrophil chemotaxis assay.
`CS(=O)(=O)NC(=O)NCCc1c(-c2ccc(F)cc2)[nH]c2ccc(Br)cc12` [1-(2-(5-bromo-2-(4-fluorophenyl)-1H-indol-3-yl)ethyl)-3-(methylsulfonyl)urea]: the IC50 amounted to 5800 nM.

Take `O=C(NCCc1c(-c2ccc(F)cc2)[nH]c2ccc(Br)cc12)NS(=O)(=O)c1ccccc1` [1-(2-(5-bromo-2-(4-fluorophenyl)-1H-indol-3-yl)ethyl)-3-(phenylsulfonyl)urea]: the IC50 was determined as 1700 nM.

Compound `CS(=O)(=O)NC(=O)CCCc1c(-c2ccc(F)cc2)[nH]c2ccc(C#N)cc12` [4-(5-cyano-2-(4-fluorophenyl)-1H-indol-3-yl)-N-(methylsulfonyl)butanamide] displayed an IC50 of 2100 nM.

In turn, `N#Cc1ccc2[nH]c(-c3ccc(F)cc3)c(CCCC(=O)NS(=O)(=O)C(F)(F)F)c2c1` [4-(5-cyano-2-(4-fluorophenyl)-1H-indol-3-yl)-N-(trifluoromethylsulfonyl)butanamide] gave a 50% inhibitory concentration (IC50) of 3000 nM.

`CN(C)S(=O)(=O)NC(=O)CCCc1c(-c2ccc(F)cc2)[nH]c2ccc(C#N)cc12` [4-[5-cyano-2-(4-fluorophenyl)-1H-indol-3-yl]-N-(dimethylsulfamoyl)butanamide] yielded an IC50 of 700 nM.

Compound `CNS(=O)(=O)NC(=O)CCCc1c(-c2ccc(F)cc2)[nH]c2ccc(C#N)cc12` [4-[5-cyano-2-(4-fluorophenyl)-1H-indol-3-yl]-N-[(methylamino)sulfonyl]butanamide] had an IC50 of 1300 nM.
